Data: BigSolDB 2.1

C[C@@H]1OC(=O)[C@H](C)OC1=O
Settings	solubility (mole fraction)
in acetone, 278.95 K	0.217
in acetone, 286.95 K	0.247
in acetone, 290.65 K	0.265
in acetone, 294.65 K	0.283
in acetone, 299.35 K	0.307
in acetone, 304.95 K	0.335
in acetone, 309.15 K	0.36
in acetone, 314.35 K	0.394
in acetone, 319.05 K	0.423
in acetone, 323.35 K	0.455
in acetone, 328.25 K	0.49
in ethanol, 283.95 K	0.00281
in ethanol, 288.65 K	0.00423
in ethanol, 295.35 K	0.00878
in ethanol, 299.95 K	0.0135
in ethanol, 303.45 K	0.031
in ethanol, 310.15 K	0.044
in ethanol, 314.65 K	0.0569
in ethanol, 319.95 K	0.081
in ethanol, 325.15 K	0.115
in ethanol, 329.25 K	0.161
in ethanol, 333.25 K	0.258
in ethanol, 336.45 K	0.337
in ethyl acetate, 277.05 K	0.115
in ethyl acetate, 282.35 K	0.131
in ethyl acetate, 287.65 K	0.147
in ethyl acetate, 296.15 K	0.178
in ethyl acetate, 301.65 K	0.199
in ethyl acetate, 305.15 K	0.221
in ethyl acetate, 308.35 K	0.242
in ethyl acetate, 313.15 K	0.272
in ethyl acetate, 318.25 K	0.311
in ethyl acetate, 324.95 K	0.369
in ethyl acetate, 331.35 K	0.436
in ethyl acetate, 336.35 K	0.491
in isopropanol, 279.65 K	0.00822
in isopropanol, 290.95 K	0.0131
in isopropanol, 295.65 K	0.017
in isopropanol, 299.95 K	0.0208
in isopropanol, 304.15 K	0.0256
in isopropanol, 309.35 K	0.0338
in isopropanol, 314.15 K	0.0455
in isopropanol, 318.65 K	0.0605
in isopropanol, 323.65 K	0.0854
in isopropanol, 329.15 K	0.127
in isopropanol, 333.15 K	0.177
in methanol, 278.25 K	0.0153
in methanol, 282.15 K	0.0221
in methanol, 284.15 K	0.0231
in methanol, 290.25 K	0.0302
in methanol, 294.25 K	0.0373
in methanol, 298.85 K	0.0474
in methanol, 302.25 K	0.0614
in methanol, 308.15 K	0.0895
in methanol, 311.45 K	0.116
in methanol, 315.75 K	0.126
in methanol, 322.25 K	0.204
in methanol, 332.55 K	0.282
in methanol, 333.15 K	0.337
in toluene, 278.55 K	0.0128
in toluene, 283.65 K	0.0211
in toluene, 286.95 K	0.0231
in toluene, 291.15 K	0.029
in toluene, 298.35 K	0.0371
in toluene, 303.15 K	0.0436
in toluene, 308.15 K	0.0666
in toluene, 315.95 K	0.0854
in toluene, 321.65 K	0.108
in toluene, 324.25 K	0.135
in toluene, 326.95 K	0.157
